Measured values reported in patent US4769447A, “Gamma-Glutamyl-4-azoanilides” (Boehringer Mannheim GmbH, priority 1986, dated 1988).
Structures can show the parent of a compound that is named as a salt.

Assays:
[1] = biological target: T1, γ-glutamyl transferase (γ-GT) (Homo sapiens, UniProt P19440); experiment: Determination of the activity of γ-glutamyl transferase in a control serum at 25° C. with different substrates; format: biochemical; settings: for extinction coefficient: at the measurement wavelength: 546 nm (S1, S8, S9), 578 nm (S5), 405 nm (L-Glupa C); for γ-GT activity found in control serum (U/liter at 25° C.): same control serum, substrate 1 mmole/liter, glycylglycine 150 mmole/liter, pH 7.9
T1 construct: host or cells: control serum
T1 sequence (P19440 381-569 limits assumed): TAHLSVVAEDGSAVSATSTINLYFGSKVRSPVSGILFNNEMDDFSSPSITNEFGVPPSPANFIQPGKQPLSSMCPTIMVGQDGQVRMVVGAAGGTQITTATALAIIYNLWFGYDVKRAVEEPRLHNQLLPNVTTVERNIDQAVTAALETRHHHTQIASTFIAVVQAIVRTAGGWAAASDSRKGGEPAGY
T1 sequence (P19440 1-380 limits assumed): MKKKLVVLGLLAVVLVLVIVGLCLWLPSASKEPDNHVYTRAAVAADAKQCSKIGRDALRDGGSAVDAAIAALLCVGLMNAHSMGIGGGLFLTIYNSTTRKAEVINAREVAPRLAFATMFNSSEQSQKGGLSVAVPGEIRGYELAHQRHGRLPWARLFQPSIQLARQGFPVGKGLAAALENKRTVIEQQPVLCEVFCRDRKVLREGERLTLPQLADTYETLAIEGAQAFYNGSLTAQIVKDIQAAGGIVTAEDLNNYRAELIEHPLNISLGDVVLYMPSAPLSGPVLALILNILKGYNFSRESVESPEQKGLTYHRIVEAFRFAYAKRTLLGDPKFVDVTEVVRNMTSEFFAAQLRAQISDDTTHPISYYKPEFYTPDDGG
Description: (§1) 21.78 g. Glycylglycine were dissolved in about 900 ml. distilled water, the pH was adjusted to 7.9 with 2N aqueous sodium hydroxide solution, the amount of substrate calculated for a concentration of 1 mmole/liter was dissolved therein and the solution made up to 1000 ml. with distilled water. End concentration in the test:
(§2) 2.0 ml. of the reagent described in (a) was pipetted into a cuvette, tempered to 25° C. and mixed with 0.2 ml. of sample. The extinction increase per minute was measured at an apropriate wavelength.
(§3) One international unit (U) is the enzyme activity which converts 1 μmole of substrate per minute at 25° C. The activity of the γ-glutamyl transferase in U/liter in the sample is calculated according to the following equation: [formula] wherein ΔE/min is the extinction increase at an appropriate wavelength per minute, V is the batch volume in ml., v is the sample volume in ml., ε is the extinction coefficient in cm^2 μmol^-1 and d is the layer thickness of the cuvette in cm.

[2] = Absorption maxima (λmax., Δλmax.) and extinction coefficient of substrates and liberated coloured materials; format: physicochemical; settings: for Δλmax. = λmax. (coloured material) - λmax. (substrate): difference of the absorption maxima; for λmax. (coloured material): coloured material liberated from the substrate
Description: Thus, for example, the difference of the absorption maxima of the known substrate γ-glutamyl-3-carboxy-4-nitroanilide (λmax. 317 nm) and of the coloured material obtained therefrom, i.e. 3-carboxy-4-nitroaniline(λmax. 380 nm) is 63 nm. In contradistinction thereto, the compounds according to the present invention of general formula (I) display substantially greater differences between the absorption spectra of the substrate and of the coloured material liberated enzymatically therefrom. As a rule, this difference is from 80 to 110 nm.
Δλmax. hereby means the difference between λmax. (coloured material)-λmax. (substrate).

[3] = routine use; cited from earlier work
γ-GT [4] = biological target: T2, γ-GT (Homo sapiens, UniProt P19440); experiment: Determination of the activity of γ-GT at 25° and 37° C. with S1 and L-Glupa C in human serum pools and control serum; format: biochemical; settings: 25° C.
T2 construct: in three mixtures of human sera; from tissue; host or cells: human serum (three pools of different activity); also a control serum of unstated origin
T2 sequence (P19440 1-380 limits assumed): as above
T2 sequence (P19440 381-569 limits assumed): as the sequence (P19440 381-569 limits assumed) above
Description: as §1, §2, §3
(§4) The substrates used were L-Glupa C and S1.

γ-GT [5] = experiment: as above; format: biochemical; settings: control serum PPU 516; 25° C.
Description: as §1, §2, §3, §4

γ-GT [6] = biological target: T2, γ-GT; experiment: as above; format: biochemical
γ-GT [7] = experiment: as above; format: biochemical; settings: control serum PPU 516

λmax. (substrate) [2] [nm] | Compound | extinction coefficient [1] [cm^2 μmol^-1] | γ-GT activity found in control serum (U/liter at 25° C.) [1] [U/liter] | Δλmax. = λmax. (coloured material) - λmax. (substrate) [2] [nm] | also measured
449 | CCOc1ccc2nc(N=Nc3ccc(NC(=O)CCC(N)C(=O)O)cc3OCC(=O)O)sc2c1.N.N (centres unmarked) [S13, 2-Amino-5-[[3-carboxymethoxy-4-(6-ethoxy-2-benzothiazolyl)-azophenyl]-amino]-5-oxopentanoic acid diammonium salt] |  |  |  | 
 | NC(CCC(=O)Nc1ccc([N+](=O)[O-])cc1)C(=O)O (centres unmarked) [γ-glutamyl-p-nitroanilide] |  |  |  | solubility (known substrate) [3]: poor solubility; stability (known substrate) [3]: instability
414 | 2-Amino-5-[[4-(2-cyano-4-nitrophenyl)-azo-3-(2-carboxyethoxy)-phenyl]-amino]-5-oxopentanoic acid diammonium salt [S2] |  |  |  | 
453 | N.N.NC(CCC(=O)Nc1ccc(N=Nc2snc3cc([N+](=O)[O-])ccc23)c(OCC(=O)O)c1)C(=O)O (centres unmarked) [S11, 2-Amino-5-[[3-carboxymethoxy-4-(6-nitro-2,1-benzisothiazol-3-yl)-azophenyl]-amino]-5-oxopentanoic acid diammonium salt] |  |  | 107 | 
448 | Cc1c(C#N)sc(N=Nc2ccc(NC(=O)CCC(N)C(=O)O)cc2OCC(=O)O)c1C#N.N.N (centres unmarked) [S6, 2-Amino-5-[[3-carboxymethoxy-4-(2,4-dicyano-3-methyl-5-thienyl)-azophenyl]-amino]-5-oxopentanoic acid diammonium salt] |  |  |  | 
424 | CCCCSc1nnc(N=Nc2ccc(NC(=O)CCC(N)C(=O)O)cc2OCC(=O)O)s1 (centres unmarked) [S12, 2-Amino-5-[[4-(2-butylthio-1,3,4-thiadiazol-5-yl)-3-carboxymethoxyazophenyl]-amino]-5-oxopentanoic acid diammonium salt] |  |  |  | 
317 | N[C@@H](CCC(=O)Nc1ccc([N+](=O)[O-])c(C(=O)O)c1)C(=O)O [L-Glupa C, L-γ-glutamyl-3-carboxy-4-nitroanilide, reference compound] | 9.5 | 128 | 63 | γ-GT activity, human serum pool 1 (γ-GT [4]): 35 U/l.; γ-GT activity, human serum pool 2 (γ-GT [4]): 63 U/l.; γ-GT activity, human serum pool 3 (γ-GT [4]): 190 U/l.; γ-GT activity, control serum PPU 516 (γ-GT [5]): 139 U/l.; γ-GT activity, human serum pool 1 (γ-GT [6]): 57 U/l.; γ-GT activity, human serum pool 2 (γ-GT [6]): 106 U/l.; γ-GT activity, human serum pool 3 (γ-GT [6]): 323 U/l.; γ-GT activity, control serum PPU 516 (γ-GT [7]): 211 U/l.
314 | NC(CCC(=O)Nc1ccc(N=Nc2ccc([N+](=O)[O-])cc2)c(C(=O)O)c1)C(=O)O (centres unmarked) [S3, 2-amino-5-[(3-carboxyl-4-(4-nitrophenyl)-azophenyl]-amino]-5-oxopentnoic acid diammonium salt] |  |  |  | 
412 | Cc1cc(NC(=O)CCC(N)C(=O)O)ccc1N=Nc1nc(C)c(C(=O)O)s1 (centres unmarked) [S7, 2-Amino-5-[[4-(5-carboxy-4-methyl-2-thiazolyl)-3-methylazophenyl]-amino]-5-oxopentanoic acid diammonium salt] |  |  |  | 
402 | C[n+]1ccsc1N=Nc1ccc(NC(=O)CCC(N)C(=O)[O-])cc1CCC(=O)O.N (centres unmarked) [S10, 2-Amino-5-[[3-(2-carboxylatoethyl)-4-(3-methylthiazolium-2-yl)-azophenyl]-amino]-5-oxopentanoic acid ammonium salt] |  |  |  | λmax. (coloured material) [2]: 486 nm; ε (coloured material) ([2]; printed after λmax. (coloured material)=486 nm): 15.5 cm^2 μmol^-1
 | Nc1ccc([N+](=O)[O-])c(C(=O)O)c1 [3-carboxy-4-nitroaniline, reference compound] |  |  |  | λmax. (coloured material) [2]: 380 nm
402 | N.N.NC(CCC(=O)Nc1ccc(N=Nc2cc(Cl)c([N+](=O)[O-])cc2Cl)c(OCC(=O)O)c1)C(=O)O (centres unmarked) [S4, 2-Amino-5-[[4-(2,5-dichloro-4-nitrophenyl)-azo-3-(carboxymethoxy)-phenyl]-amino]-5-oxopentanoic acid diammonium salt] |  |  |  | 

Compound | λmax. (substrate) [2] [nm] | extinction coefficient [1] [cm^2 μmol^-1] | γ-GT activity found in control serum (U/liter at 25° C.) [1] [U/liter] | Δλmax. = λmax. (coloured material) - λmax. (substrate) [2] [nm] | also measured
Cc1nc(N=Nc2ccc(NC(=O)CCC(N)C(=O)O)cc2CCC(=O)O)sc1C#N.N.N (centres unmarked) [S8, 2-Amino-5-[[3-(2-carboxyethyl)-4-(5-cyano-4-methyl-2-thiazolyl)-azophenyl]-amino]-5-oxopentanoic acid diammonium salt] | 420 | 25.2 | 101 | 100 | 
N.N.NC(CCC(=O)Nc1ccc(N=Nc2nccs2)c(CCC(=O)O)c1)C(=O)O (centres unmarked) [S9, 2-Amino-5-[[3-(2-carboxyethyl)-4-(2-thiazolyl)azophenyl]amino]-5-oxopentanoic acid diammonium salt] | 394 | 2.8 | 160 |  | 
Cc1c(C#N)sc(N=Nc2ccc(NC(=O)CCC(N)C(=O)O)cc2CCC(=O)O)c1C#N.N.N (centres unmarked) [S5, 2-Amino-5-[[3-(2-carboxyethyl)-4-(2,4-dicyano-3-methyl-5-thienyl)-azophenyl]-amino]-5-oxopentanoic acid diammonium salt] | 424 | 8.9 | 77 | 106 | 
N.N.N#Cc1cc([N+](=O)[O-])ccc1N=Nc1ccc(NC(=O)CCC(N)C(=O)O)cc1CCC(=O)O (centres unmarked) [S1, 2-Amino-5-[[4-(2-cyano-4-nitrophenyl)-azo-3-(2-carboxyethyl)-phenyl]-amino]-5-oxopentanoic acid diammonium salt] | 394 | 7.8 | 144 | 94 | γ-GT activity, human serum pool 1 (γ-GT [4]): 42 U/l.; γ-GT activity, human serum pool 2 (γ-GT [4]): 76 U/l.; γ-GT activity, human serum pool 3 (γ-GT [4]): 220 U/l.; γ-GT activity, control serum PPU 516 (γ-GT [5]): 134 U/l.; γ-GT activity, human serum pool 1 (γ-GT [6]): 96 U/l.; γ-GT activity, human serum pool 2 (γ-GT [6]): 176 U/l.; γ-GT activity, human serum pool 3 (γ-GT [6]): 490 U/l.; γ-GT activity, control serum PPU 516 (γ-GT [7]): 268 U/l.
